Reference: US10220019B2, “Method for treating pulmonary fibrosis comprising application of dimethylamino micheliolide” (Tianjin International Joint Academy of Biotechnology & …, priority 2016, dated 2019)

System: mouse pulmonary fibrosis model
Experiment: Mouse pulmonary fibrosis model and pharmacodynamics test of ACT001
Format: in vivo, Kunming mice (male)
Method: a) Preparation of ACT001 solution: 1 g ACT001 powder was weighed and dissolved in 100 mL 0.9% normal saline solution to prepare 10 mg/mL solution. When it was fully dissolved, it was filter sterilized with 0.22 μm filter for use, and was freshly prepared each time before use. The preparation and the use of the solution should be performed in a sterile biosafety cabinet.
b) Preparation of ethyl viologen hydrate solution: 2 g ethyl viologen hydrate was weighed and dissolved in 100 mL 0.9% normal saline to prepare 20 mg/mL solution. When it was fully dissolved, it was filter sterilized with 0.22 μm filter for use, and was freshly prepared each time before each use. The preparation and the use of the solution should be performed in a sterile biosafety cabinet.
Randomly divide 36 mice into three groups: normal group, control group (pulmonary fibrosis model group), ACT001 group (administering ACT001 after modeling), and 12 animals per group. Conduct a one-off intragastric administration of 0.15 mL of 0.9% normal saline to each animal in the normal group; and conduct a one-off intragastric administration of 0.15 mL of the ethyl viologen hydrate solution to each animal in the control group and ACT001 group.
3 weeks after modeling, drug treatment was given to the mice. Conduct an intragastric administration of 0.1 mL of 0.9% normal saline to each animal in the normal and control groups, and conduct an intragastric administration of 0.1 mL ACT001 aqueous solution to each animal in the ACT001 group. Once every 2 days.
At the third week after modeling, the second week after drug administration, and the third week after drug administration, four mice were each taken from the normal group, control group and ACT001 group, sacrificed by breaking their necks, their lung tissues were sampled, after fixing the tissues with 10% formalin for two days, the fixing solution on the surface of the lung tissues was washed away with running water, the lung tissues were then dehydrated with a pathological tissue dehydration machine, the tissues were embed in paraffin, the embedded tissues were sectioned, H.E. staining was conducted and slides were covered before observing the changes of the lung tissues under microscope.

[1] = after 3 weeks of drug administration
[2] = second week after ACT001 administration, intragastric 0.1 mL once every 2 days

In the case of `CC1=C2CC[C@@](C)(O)C2[C@H]2OC(=O)[C@@H](CN(C)C)[C@@H]2CC1` (stereo partly shown) [ACT001, dimethylamino micheliolide], the “difference in pulmonary coefficient versus the normal group” value [1] is reported as “no significant difference”, the “pulmonary coefficient lower relative to the control group” value [1] is reported as 0.47% and the average lung weight (after 3 weeks of drug administration, normal group 0.4012 g, control group 0.5983 g) is reported as 0.4034 g. For the same compound, the “average of pulmonary coefficient (lung wet mass/body weight*100%)” value (after 3 weeks of drug administration, normal group 0.81%, control group 1.32%) was 0.85%, the average body weight (after 3 weeks of drug administration, normal group 49.2352 g, control group 45.4575 g) was 47.576 g and the “blood supply in the lung tissue (lung tissue morphology under stereoscopic microscope)” value (second week after ACT001 administration, intragastric 0.1 mL of 10 mg/mL solution once every 2 days, started 3 weeks after modeling, compared with control group) was “significant improvement of blood supply in the lung tissue”. The “alveolar structures (lung tissue section, H.E. staining)” value [2] was “restored to normal”, the “deposition in the lung interstitials (lung tissue section, H.E. staining)” value [2] was “significantly reduced” and the “fibrosis degree of the lung (lung tissue section, H.E. staining)” value (second week after ACT001 administration, intragastric 0.1 mL once every 2 days, compared with control group) was “significant improvement for the fibrosis degree of the lung”. For the same compound, the “level of pulmonary fibrosis (lung tissue morphology and tissue section)” value (third week after ACT001 administration, compared with control group) was “significantly reduced”.
